For data set [1] the following is noted: cited from earlier work.
Data set [2] has as its system template RNA, influenza A(H3N2) NA region 675-1075 bases. Kind of data set: RT-SmartAmp nucleic acid amplification inhibition due to SDS (DNA polymerase inhibitory activity), without rhinal mucosa. It is filed as biochemical. The note with it: 0.5% Triton X-100 in reaction solution, 5 μL of 0.1% SDS solution added; FIG. 10.

The values that follow come from patent US9518901B2, “Pretreatment method of biological sample, detection method of RNA, and pretreatment kit” (KABUSHIKI KAISHA DNAFORM, priority 2011, dated 2016).

In general, pKa refers to the pH at which an ionisable group is half protonated. On to `O=S(=O)(O)CCN1CCOCC1` [MES], for which the pKa in data set [1] is reported as 6.15.

For Triton X-100, the “nucleic acid amplification activity (mitigation of inhibition due to SDS)” value in data set [2] is listed as “prominent nucleic acid amplification was recognized”.
